# Like-named read-outs stand apart in the source and are kept apart here.
# Assays:
# heat stable toxin (STa) = test: Ussing chamber assay, effect of cadaverine on heat stable toxin (STa); assay type: cell-based, enterotoxigenic Escherichia coli
# [1] = system: S. flexneri-induced PMN transepithelial migration; test: PMN transepithelial migration assay across T84 cell monolayers
# stable toxin (YST-11) = test: Ussing chamber assay, effect of cadaverine on YST-11; assay type: cell-based, Yersinia enterocolitica; conditions: toxin mucosal side; cadaverine (400 μM) both sides
# ShET-1 and ShET-2 [2] = test: Fluid accumulation in ileal loops, effect of cadaverine; assay type: in vivo, Shigella flexneri 2a; conditions: cadaverine 400 μM unless otherwise indicated
# ShET-1 and ShET-2 [3] = assay type: cell-based, Shigella flexneri 2a
# Shiga toxin [4] = biological target: T1, Shiga toxin (Shigella dysenteriae, UniProt Q7BQ98+Q9FBI2); conditions: cadaverine 400 μM unless otherwise indicated
# T1 sequence (Q9FBI2 23-315 limits assumed): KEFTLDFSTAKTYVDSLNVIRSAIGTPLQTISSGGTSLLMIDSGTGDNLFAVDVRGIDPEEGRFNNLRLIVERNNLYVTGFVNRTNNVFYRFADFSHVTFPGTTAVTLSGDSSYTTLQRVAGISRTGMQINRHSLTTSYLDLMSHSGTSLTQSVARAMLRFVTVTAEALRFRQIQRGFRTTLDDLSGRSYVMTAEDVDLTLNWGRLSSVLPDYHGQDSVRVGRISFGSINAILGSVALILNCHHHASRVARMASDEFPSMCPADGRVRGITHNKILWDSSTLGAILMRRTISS
# T1 sequence (Q7BQ98 21-89 limits assumed): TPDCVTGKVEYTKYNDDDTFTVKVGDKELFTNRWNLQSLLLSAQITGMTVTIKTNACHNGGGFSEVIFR
# Shiga toxin [5] = biological target: T1, Shiga toxin; assay type: cell-based, Shigella dysenteriae 1
# [6] = system: cytolethal distending toxin; test: Ussing chamber assay, effect of cadaverine on cytolethal distending toxin; assay type: cell-based, Campylobacter jejuni
# cholera toxin = cholera toxin (Vibrio cholerae serotype O1, UniProt P01555+P01556); assay type: cell-based
# Sequence of cholera toxin (P01555 19-258 limits assumed): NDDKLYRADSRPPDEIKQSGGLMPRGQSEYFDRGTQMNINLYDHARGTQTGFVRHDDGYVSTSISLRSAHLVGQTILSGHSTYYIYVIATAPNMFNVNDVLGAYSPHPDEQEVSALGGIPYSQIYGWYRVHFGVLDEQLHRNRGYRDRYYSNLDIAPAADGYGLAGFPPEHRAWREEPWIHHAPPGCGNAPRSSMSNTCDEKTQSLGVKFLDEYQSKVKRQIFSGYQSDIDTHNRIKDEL
# Sequence of cholera toxin (P01556 22-124 limits assumed): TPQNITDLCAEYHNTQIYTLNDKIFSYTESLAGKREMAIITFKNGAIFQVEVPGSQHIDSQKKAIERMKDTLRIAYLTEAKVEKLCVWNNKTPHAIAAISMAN
# stable toxin (YST-I) = stable toxin (YST-I) (Yersinia enterocolitica, UniProt P07593); test: Ussing chamber assay, effect of cadaverine on YST-I; assay type: cell-based
# BS103 = conditions: T84 monolayers, mean ± SEM
# Tsh-associated toxin = test: Ussing chamber assay, effect of cadaverine on Tsh-associated toxin; assay type: cell-based, avian pathogenic Escherichia coli; conditions: toxin mucosal side; cadaverine (400 μM) both sides
# [7] = system: S. flexneri 2a strain 2457T; assay type: cell-based, Shigella flexneri 2a; conditions: 2457T + 1 mM supplement present only during the two hour invasion period
# mxiA::lacZ = assay type: cell-based, S. flexneri 2a
# [8] = system: representative virulence genes; assay type: cell-based, S. flexneri 2a
# ipaB::lacZ = assay type: cell-based, S. flexneri 2a
# spa47::lacZ = assay type: cell-based, S. flexneri 2a
# [9] = cadaverine 400 μM unless otherwise indicated
# [10] = toxin mucosal side, cadaverine (400 μM) both sides
structure (smiles),measurement,setting,value
"NCCCCCN [cadaverine, 1,5-diaminopentane]","Effect of Cadaverine, enterotoxicity in Ussing chambers",heat stable toxin (STa); [9],none
same,ΔIsc + cadaverine,heat stable toxin (STa); [10],75.9
same,ability of S. flexneri to promote PMN transepithelial migration,"[1]; 2457T added basolaterally together with cadaverine 100, 300 and 500 μM (FIG. 3)",dose dependent decrease
same,down regulation of S. flexneri-induced PMN transepithelial migration,"[1]; T84 infected with 2457T 1 hr, then apical cadaverine 300 μM 30 min (FIG. 5)",60%
same,ΔIsc + cadaverine,stable toxin (YST-11),32.4
same,"Effect of Cadaverine, fluid accumulation in ileal loops",ShET-1 and ShET-2 [2],both completely
same,"Effect of Cadaverine, enterotoxicity in Ussing chambers",ShET-1 and ShET-2 [3],blocked
same,ΔIsc + cadaverine,ShET-1 and ShET-2 [3],2.7
same,ΔIsc as % of the value in tissues not pretreated,ShET-1 and ShET-2 [3],40%
same,"Effect of Cadaverine, cytotoxicity in Vero cells",Shiga toxin [4],none
same,"Effect of Cadaverine, enterotoxicity in Ussing chambers",Shiga toxin [5]; [9],blocked;
same,ΔIsc + cadaverine,Shiga toxin [5]; [10],−13.6
same,"Effect of Cadaverine, enterotoxicity in Ussing chambers",[6]; [9],completely
same,ΔIsc + cadaverine,[6]; [10],−18.7
same,"Effect of Cadaverine, enterotoxicity in Ussing chambers",cholera toxin; [9],none
same,ΔIsc + cadaverine,cholera toxin; [10],70.9
same,"Effect of Cadaverine, enterotoxicity in Ussing chambers",stable toxin (YST-I); [9],completely
same,ΔIsc + cadaverine,stable toxin (YST-I); [10],−11.0
same,% Association BS103,BS103; 100 μM cadaverine,4.37 ± 1.64%
same,% Internalization BS103,BS103; 100 μM cadaverine,0.08 ± 0.02%
same,% Association BS103,BS103; 300 μM cadaverine,3.14 ± 0.75%
same,% Internalization BS103,BS103; 300 μM cadaverine,0.03 ± 0.01%
same,% Association BS103,BS103; 500 μM cadaverine,2.11 ± 0.90%
same,% Internalization BS103,BS103; 500 μM cadaverine,0.01 ± 0.01%
same,ΔIsc + cadaverine,Tsh-associated toxin,23.3
O=C(O)c1ccc[n+]([C@@H]2O[C@H](COP(=O)(O)O)[C@@H](O)[C@H]2O)c1 [nicotinic acid mononucleotide],% FIREWORKS,[7],17%
same,% INVASION,[7],82%
O=C(O)c1cccnc1 [nicotinic acid],% FIREWORKS,[7],17%
same,% INVASION,[7],85%
O=C(O)c1cccnc1C(=O)O [quinolinate],Miller Units of activity,mxiA::lacZ,196.5 ± 2.0 Miller Units
same,reduction of virulence gene expression,[8],about 50%
same,Miller Units of activity,ipaB::lacZ,140.5 ± 2.9 Miller Units
same,Miller Units of activity,spa47::lacZ,312.3 ± 6.5 Miller Units
same,% FIREWORKS,[7],0%
same,% INVASION,[7],0.5%
